Assay: xn = mol fraction of the nth substance listed
Conditions: 101 kPa, Liquid, Vibrating tube method

NCCN [ethane-1,2-diamine] + O
mass density [kg/m3]
Conditions | 288.15 K | 298.15 K | 308.15 K | 323.15 K | 333.15 K
x1 = 0.002 | – | 996.85 | 993.82 | 987.81 | 982.96
x1 = 0.0033 | – | 996.68 | 993.64 | 987.61 | 982.75
x1 = 0.0047 | – | 996.5 | 993.43 | 987.39 | 982.53
x1 = 0.0072 | – | 996.2 | 993.09 | 987 | 982.12
x1 = 0.009 | – | 995.97 | 992.86 | 986.75 | 981.85
x1 = 0.0123 | – | 995.55 | 992.39 | 986.24 | 981.3
x1 = 0.0222 | – | 994.61 | 991.25 | 984.89 | 979.82
x1 = 0.0436 | – | 993.31 | 989.53 | 982.66 | 977.37
x1 = 0.0609 | – | 992.96 | 988.77 | 981.44 | 975.89
x1 = 0.0827 | – | 993.06 | 988.38 | 980.39 | 974.47
x1 = 0.106 | – | 993.56 | 988.34 | 979.64 | 973.29
x1 = 0.1481 | – | 994.9 | 988.68 | 978.7 | 971.62
x1 = 0.2063 | – | 995.33 | 987.95 | 976.41 | 968.4
x1 = 0.2513 | – | 993.49 | 985.55 | 973.14 | 964.58
x1 = 0.3148 | – | 985.82 | 978.7 | 964.84 | 956.48
x1 = 0.3258 | – | 985.17 | – | – | –
x1 = 0.341 | – | 984.26 | 975.15 | 961.96 | 952.88
x1 = 0.4038 | – | 974.96 | 965.9 | 952.12 | 942.8
x1 = 0.4489 | – | 967.22 | 958.22 | 944.49 | 935.14
x1 = 0.4928 | – | 959.94 | 950.76 | 936.96 | 927.53
x1 = 0.5468 | – | 950.96 | 942.44 | 928.02 | 918.58
x1 = 0.5907 | – | 943.88 | 934.72 | 920.79 | 911.42
x1 = 0.6361 | 945.77 | 936.87 | 927.73 | 913.79 | 904.37
x1 = 0.6843 | 938.88 | 929.8 | 920.72 | 906.8 | 897.38
x1 = 0.7386 | 931.34 | 922.53 | 913.33 | 899.31 | 889.84
x1 = 0.7954 | 924.08 | 914.93 | 905.7 | 891.79 | 882.31
x1 = 0.81 | 922.08 | 912.91 | 903.69 | 889.66 | 880.16
x1 = 0.8505 | 917.35 | 908.14 | 898.88 | 884.84 | 875.33
x1 = 0.898 | 912.03 | 902.85 | 893.62 | 879.53 | 870.05
x1 = 0.9282 | 908.76 | 899.58 | 890.26 | 876.1 | 866.59
x1 = 0.9584 | 905.56 | 896.29 | 886.94 | 872.76 | 863.2
x1 = 0.9678 | 904.59 | 895.3 | 885.94 | 871.75 | 862.17
x1 = 0.9793 | 903.4 | 894.08 | 884.7 | 870.49 | 860.9
x1 = 1 | 901.26 | 891.9 | 882.49 | 868.23 | 858.6

— the NIST ThermoML archive (doi:10.1016/j.tca.2016.06.022)
